Values quoted from earlier work, collected in patent US9433620B2, “Pharmaceutical compositions of lurasidone” (CADILA HEALTHCARE LIMITED, priority 2011, dated 2016).
Where a name gives a salt, the structure may show the parent alone.

O=C1[C@@H]2[C@H]3CC[C@H](C3)[C@@H]2C(=O)N1C[C@@H]1CCCC[C@H]1CN1CCN(c2nsc3ccccc23)CC1 [lurasidone, N-[4-[4-(1,2-benzisothiazol-3-yl)-1-piperazinyl]-(2R,3R)-2,3-tetramethyle-ne-butyl]-(1′R,2′S,3′R,4′S)-2,3-bicyclo[2,2,1]heptanedicarboxylmide hydrochloride]
solubility in water: less than several
